Measured values: paper PMC4774911, “Biochemical Screening of Five Protein Kinases from Plasmodium falciparum against 14,000 Cell-Active Compounds” (PLoS ONE, 2016)
pKd: −log10 of the molar value. Several values for one entry are separate records, joined by “and”; a condition that tells them apart may be missing. Identical values can stand only once.

Assays:
Experiment in all cases: biochemical
Set-up in all cases: endogenous in cells; host or cells: K562 cell extract; species or system K562 (extract); replicate k of n = 2 (each experiment ID is one independent experiment; two experiment IDs per compound)
Details in all cases: read-out: KDapp
CDK6 = CDK6 (Homo sapiens, UniProt Q00534)
IRAK1 = IRAK1 (Homo sapiens, UniProt P51617)
JAK2 = JAK2 (Homo sapiens, UniProt O60674)
MAP4K2 = target: T1, MAP4K2 (Homo sapiens, UniProt Q12851)
T1 sequence (Q12851 1-820): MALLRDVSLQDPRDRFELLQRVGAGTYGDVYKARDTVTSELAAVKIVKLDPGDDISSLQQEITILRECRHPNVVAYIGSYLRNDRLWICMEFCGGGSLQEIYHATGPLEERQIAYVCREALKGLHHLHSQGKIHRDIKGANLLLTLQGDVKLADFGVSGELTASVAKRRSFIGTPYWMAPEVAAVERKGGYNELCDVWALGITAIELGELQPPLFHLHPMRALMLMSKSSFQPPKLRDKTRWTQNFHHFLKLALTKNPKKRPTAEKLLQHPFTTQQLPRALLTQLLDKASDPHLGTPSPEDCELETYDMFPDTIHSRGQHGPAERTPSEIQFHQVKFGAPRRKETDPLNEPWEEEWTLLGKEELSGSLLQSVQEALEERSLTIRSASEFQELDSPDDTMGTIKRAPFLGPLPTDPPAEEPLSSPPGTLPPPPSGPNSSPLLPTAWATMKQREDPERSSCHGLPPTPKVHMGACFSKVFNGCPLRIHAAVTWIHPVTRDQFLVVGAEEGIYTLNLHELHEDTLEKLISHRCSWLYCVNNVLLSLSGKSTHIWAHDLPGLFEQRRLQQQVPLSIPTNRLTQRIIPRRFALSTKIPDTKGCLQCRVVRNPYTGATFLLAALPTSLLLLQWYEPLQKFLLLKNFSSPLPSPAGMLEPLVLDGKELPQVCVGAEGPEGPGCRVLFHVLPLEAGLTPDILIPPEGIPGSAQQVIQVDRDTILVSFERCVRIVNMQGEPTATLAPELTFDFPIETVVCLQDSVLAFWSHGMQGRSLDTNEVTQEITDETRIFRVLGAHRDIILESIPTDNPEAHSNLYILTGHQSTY

MAPK8 = MAPK8 (Homo sapiens, UniProt P45983)
ULK1 = target: T2, ULK1 (Homo sapiens, UniProt O75385)
T2 sequence (O75385 1-1050): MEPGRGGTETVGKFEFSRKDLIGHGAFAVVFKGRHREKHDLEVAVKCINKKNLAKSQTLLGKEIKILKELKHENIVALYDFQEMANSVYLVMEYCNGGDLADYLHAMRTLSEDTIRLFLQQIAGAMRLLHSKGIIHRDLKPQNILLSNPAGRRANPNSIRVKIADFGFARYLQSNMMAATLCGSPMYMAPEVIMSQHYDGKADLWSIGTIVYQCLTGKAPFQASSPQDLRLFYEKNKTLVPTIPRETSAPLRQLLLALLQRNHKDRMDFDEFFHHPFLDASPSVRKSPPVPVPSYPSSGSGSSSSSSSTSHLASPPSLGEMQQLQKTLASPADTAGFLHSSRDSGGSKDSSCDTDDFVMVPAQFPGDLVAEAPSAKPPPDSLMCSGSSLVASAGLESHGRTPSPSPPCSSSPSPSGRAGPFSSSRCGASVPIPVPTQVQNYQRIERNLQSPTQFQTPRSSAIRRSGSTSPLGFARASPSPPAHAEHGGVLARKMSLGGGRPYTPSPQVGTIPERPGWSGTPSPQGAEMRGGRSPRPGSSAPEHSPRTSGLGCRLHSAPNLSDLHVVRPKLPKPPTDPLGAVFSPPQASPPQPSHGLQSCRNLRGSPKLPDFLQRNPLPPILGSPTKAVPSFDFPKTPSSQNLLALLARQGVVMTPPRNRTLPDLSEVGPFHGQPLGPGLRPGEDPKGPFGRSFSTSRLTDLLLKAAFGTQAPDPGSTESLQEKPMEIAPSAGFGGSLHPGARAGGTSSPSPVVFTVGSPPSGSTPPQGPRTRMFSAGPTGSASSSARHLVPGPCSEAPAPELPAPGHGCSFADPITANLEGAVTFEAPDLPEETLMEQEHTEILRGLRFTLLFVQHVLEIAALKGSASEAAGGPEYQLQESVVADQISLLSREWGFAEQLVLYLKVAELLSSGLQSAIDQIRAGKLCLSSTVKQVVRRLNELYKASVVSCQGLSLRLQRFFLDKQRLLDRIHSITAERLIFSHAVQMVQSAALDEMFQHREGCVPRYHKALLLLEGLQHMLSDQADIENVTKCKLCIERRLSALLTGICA

MAPK6 = MAPK6 (Homo sapiens, UniProt Q16659)
MAPK6, sequence (Q16659 whole entry): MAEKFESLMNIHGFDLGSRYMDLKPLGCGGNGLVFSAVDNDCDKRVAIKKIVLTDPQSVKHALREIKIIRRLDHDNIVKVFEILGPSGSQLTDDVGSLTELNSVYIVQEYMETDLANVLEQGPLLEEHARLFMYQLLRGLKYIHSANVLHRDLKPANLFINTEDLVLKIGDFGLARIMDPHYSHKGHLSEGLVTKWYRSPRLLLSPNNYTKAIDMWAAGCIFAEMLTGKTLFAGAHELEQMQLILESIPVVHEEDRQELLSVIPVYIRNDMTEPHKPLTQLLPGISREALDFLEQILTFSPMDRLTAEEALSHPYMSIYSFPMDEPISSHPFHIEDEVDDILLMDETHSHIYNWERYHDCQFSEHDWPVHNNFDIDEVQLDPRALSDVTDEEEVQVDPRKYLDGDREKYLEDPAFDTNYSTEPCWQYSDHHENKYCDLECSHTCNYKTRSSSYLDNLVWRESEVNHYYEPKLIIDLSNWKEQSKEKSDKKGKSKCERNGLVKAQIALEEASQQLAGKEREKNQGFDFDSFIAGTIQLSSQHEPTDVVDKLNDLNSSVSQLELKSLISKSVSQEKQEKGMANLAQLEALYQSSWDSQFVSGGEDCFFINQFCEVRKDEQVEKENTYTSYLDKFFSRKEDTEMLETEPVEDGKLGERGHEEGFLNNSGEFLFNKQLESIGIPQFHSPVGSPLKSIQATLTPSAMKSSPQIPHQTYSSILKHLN

CDK6, sequence (Q00534 whole entry): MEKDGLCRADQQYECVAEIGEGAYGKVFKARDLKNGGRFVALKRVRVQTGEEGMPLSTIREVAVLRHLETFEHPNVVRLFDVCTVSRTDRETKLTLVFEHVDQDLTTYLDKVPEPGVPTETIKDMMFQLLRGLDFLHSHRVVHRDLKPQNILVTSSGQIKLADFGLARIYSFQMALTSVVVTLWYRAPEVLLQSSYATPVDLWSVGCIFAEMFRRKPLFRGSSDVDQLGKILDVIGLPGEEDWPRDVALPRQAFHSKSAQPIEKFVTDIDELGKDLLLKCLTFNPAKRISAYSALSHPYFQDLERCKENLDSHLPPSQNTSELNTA
MAPK8, sequence (P45983 whole entry): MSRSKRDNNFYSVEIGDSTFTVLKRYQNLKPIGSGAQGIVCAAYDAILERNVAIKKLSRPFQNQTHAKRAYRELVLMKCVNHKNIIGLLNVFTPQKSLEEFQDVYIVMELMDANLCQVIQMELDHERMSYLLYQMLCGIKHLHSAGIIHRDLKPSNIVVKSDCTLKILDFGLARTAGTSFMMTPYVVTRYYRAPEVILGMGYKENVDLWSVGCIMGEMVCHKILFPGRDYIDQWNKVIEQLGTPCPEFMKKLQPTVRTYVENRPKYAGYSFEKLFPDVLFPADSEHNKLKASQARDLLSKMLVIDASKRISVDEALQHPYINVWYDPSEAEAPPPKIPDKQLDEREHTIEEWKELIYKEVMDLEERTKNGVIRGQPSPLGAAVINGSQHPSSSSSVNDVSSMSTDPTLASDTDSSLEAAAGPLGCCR
JAK2, sequence (O60674 whole entry): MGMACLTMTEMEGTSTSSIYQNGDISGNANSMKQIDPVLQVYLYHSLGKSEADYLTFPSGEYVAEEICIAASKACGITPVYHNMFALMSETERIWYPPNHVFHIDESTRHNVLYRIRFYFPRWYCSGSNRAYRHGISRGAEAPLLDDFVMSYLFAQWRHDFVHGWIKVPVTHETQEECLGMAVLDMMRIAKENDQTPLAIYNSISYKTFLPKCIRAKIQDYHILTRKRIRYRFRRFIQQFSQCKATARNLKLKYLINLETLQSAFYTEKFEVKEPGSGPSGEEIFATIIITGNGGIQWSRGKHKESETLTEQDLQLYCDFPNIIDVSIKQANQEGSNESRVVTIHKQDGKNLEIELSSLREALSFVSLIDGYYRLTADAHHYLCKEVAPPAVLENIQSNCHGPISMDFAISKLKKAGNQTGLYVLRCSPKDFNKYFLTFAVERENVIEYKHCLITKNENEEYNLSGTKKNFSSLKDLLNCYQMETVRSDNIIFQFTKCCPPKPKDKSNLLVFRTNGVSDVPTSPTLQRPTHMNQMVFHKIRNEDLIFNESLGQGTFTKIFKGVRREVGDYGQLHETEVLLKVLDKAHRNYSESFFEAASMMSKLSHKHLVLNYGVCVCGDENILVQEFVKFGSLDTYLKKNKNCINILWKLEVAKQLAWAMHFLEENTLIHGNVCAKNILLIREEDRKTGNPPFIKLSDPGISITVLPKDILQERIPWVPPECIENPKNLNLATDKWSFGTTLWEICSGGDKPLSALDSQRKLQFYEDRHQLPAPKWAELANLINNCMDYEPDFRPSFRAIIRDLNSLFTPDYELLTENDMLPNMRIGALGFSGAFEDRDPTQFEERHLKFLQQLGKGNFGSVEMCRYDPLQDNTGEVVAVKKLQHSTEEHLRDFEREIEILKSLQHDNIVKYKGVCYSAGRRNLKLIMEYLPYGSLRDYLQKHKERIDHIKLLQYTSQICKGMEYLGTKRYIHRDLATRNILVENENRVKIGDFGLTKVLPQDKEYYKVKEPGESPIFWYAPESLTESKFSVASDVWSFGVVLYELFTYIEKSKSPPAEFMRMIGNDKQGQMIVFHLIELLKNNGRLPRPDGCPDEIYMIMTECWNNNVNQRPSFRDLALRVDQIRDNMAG
IRAK1, sequence (P51617 whole entry): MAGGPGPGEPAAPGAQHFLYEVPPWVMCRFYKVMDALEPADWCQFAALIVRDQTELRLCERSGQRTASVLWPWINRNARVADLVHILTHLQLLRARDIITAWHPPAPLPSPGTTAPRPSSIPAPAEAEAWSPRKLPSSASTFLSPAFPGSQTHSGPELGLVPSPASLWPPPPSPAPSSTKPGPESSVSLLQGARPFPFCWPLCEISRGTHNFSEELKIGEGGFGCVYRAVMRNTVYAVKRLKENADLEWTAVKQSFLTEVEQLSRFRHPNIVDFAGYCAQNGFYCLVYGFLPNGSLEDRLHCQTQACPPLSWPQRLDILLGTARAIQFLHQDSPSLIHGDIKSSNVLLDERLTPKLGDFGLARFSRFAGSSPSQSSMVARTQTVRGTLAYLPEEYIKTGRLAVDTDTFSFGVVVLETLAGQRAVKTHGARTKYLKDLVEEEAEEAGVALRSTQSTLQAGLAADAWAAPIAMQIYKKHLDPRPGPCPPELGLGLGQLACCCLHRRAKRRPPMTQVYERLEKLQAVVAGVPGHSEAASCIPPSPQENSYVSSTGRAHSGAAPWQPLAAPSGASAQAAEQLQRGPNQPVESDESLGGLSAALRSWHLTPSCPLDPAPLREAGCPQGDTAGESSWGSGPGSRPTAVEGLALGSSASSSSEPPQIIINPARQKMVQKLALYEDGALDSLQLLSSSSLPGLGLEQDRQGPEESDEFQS

| Compound | pKd (CDK6) | pKd (IRAK1) | pKd (JAK2) | pKd (MAP4K2) | pKd (MAPK8) | pKd (ULK1) | pKd (MAPK6) |
| --- | --- | --- | --- | --- | --- | --- | --- |
| CN1CCN(c2ccc(Nc3ncc(C#N)c(Nc4ccccc4C(N)=O)n3)cc2)CC1.Cl [TCMDC-134116] | 6.88 and 6.82 | 7.03 and 7.09 | 6.54 and 6.73 | 6.19 | 6.44 and 5.91 | 7.02 |  |
| CN(C)CC(O)COc1ccc(Nc2ncc([N+](=O)[O-])c(Nc3ccccc3O)n2)cc1.O=C(O)C(F)(F)F (stereo not shown) [TCMDC-141399] |  |  |  |  |  |  | 6.61 |
